Assay results reported in PubChem BioAssay (NCI).
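Cultured in 96-well plates, cells were exposed to test compound for 48 hours across five concentrations. At the TGI there is no net growth.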

Experiments:
Assay in all cases: DTP human tumour cell line panel, 48 h
[1] = tested on: HOP-18 NSCLC
[2] = tested on: M19-MEL melanoma
[3] = tested on: SNB-78 CNS
[4] = tested on: DMS 273 small cell lung
[5] = tested on: KM20L2 colon
[6] = tested on: RXF-631 renal
[7] = tested on: MDA-MB-435
[8] = tested on: BT-549 breast

Measured: TGI

Cc1cn([C@@H]2C[C@H](CO)[C@@H](O)C2)c(=O)[nH]c1=O
not listed: [7] | [8]
> 100 µM: all other assays above

Cn1ccnc1C(O)(c1nccn1C)c1nccn1C
> 100 µM: [1] | [2] | [3]

C=CCNC(=S)N=Nc1c(O)[nH]c2ccc([N+](=O)[O-])cc12
> 100 µM: [7] | [8]

CCC1=NC(C(F)(F)F)(C(F)(F)F)N=C(N2CCOCC2)O1
> 100 µM: [7]
